Reference: patent US5795907A, “Gastin and CCK receptor ligands” (James Black Foundation Limited, priority 1994, dated 1998)

Experiments:
CCKA = molecular target: T1, CCKA (Cavia porcellus, UniProt Q63931); assay: CCKA radioligand binding assay in guinea-pig pancreas membranes ([125I]-CCK8(S)); conditions: PD134,308 present, 150 minutes at 21±3°; for Ki: read-out: CCKA pKi (converted)
T1 construct: The pancreatata were homogenised in 40 ml ice-cold HEPES buffer using a polytron; from tissue; host or cells: pancreas membranes of male Dunkin Hartley guinea-pigs
T1 sequence (Q63931 1-430): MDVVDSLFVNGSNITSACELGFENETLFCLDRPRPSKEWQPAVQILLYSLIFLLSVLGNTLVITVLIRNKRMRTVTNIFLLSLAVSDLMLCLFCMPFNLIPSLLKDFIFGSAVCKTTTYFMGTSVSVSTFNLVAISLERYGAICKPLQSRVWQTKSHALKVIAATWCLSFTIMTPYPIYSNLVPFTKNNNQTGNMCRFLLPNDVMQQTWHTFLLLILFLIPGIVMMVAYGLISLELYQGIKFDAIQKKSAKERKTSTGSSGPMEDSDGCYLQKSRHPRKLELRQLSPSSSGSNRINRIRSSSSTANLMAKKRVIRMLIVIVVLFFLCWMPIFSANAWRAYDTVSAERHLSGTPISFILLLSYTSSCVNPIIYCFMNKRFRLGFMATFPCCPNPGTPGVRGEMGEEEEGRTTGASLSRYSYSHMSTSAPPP
Method: The compounds of the examples were also tested in a CCKA as follows:
The pancreatata were removed from male guinea-pigs (200-300 g; Dunkin Hartley) and placed in ice-cold HEPES buffer (pH 7.2 @ 21 ±3). The pancreatata were homogenised in 40 ml ice-cold HEPES buffer using a polytron (Brinkmann, PT10, setting 10) 4×1 second. The homogenate was centrifuged at 39,800 g for 15 min at 4°. The supernatant was discarded and the pellet re-suspended using a Teflon-in-glass homogeniser in 20 volumes of fresh buffer and re-centrifuged as above.
The final pellet was re-suspended using a Teflon-in-glass homogeniser to a tissue concentration of 1 mg.ml^-1 (original wet weight), and filtered through 500 μm pore-size Nytex mesh.
The membranes (400 μl; containing 0.375 μM PD134,308) are incubated for 150 minutes at 21±3° in a final volume of 0.5 ml with HEPES buffer containing [^125 I]-CCK8 (S) (50 μl; […]) and competing compound. Total and non-specific binding of [^125 I]-CCK8 (S) are defined using 50 μl of buffer and 50 μl of 100 nM L-364,718 respectively. The assay is terminated by rapid filtration through pre-soaked Whatman GF/B filters using a Brandell Cell Harvester. The filters were washed (3×3 ml) with ice-cold 50 mM Tris HCl (pH 7.4 at 4°) and bound radioactivity is determined by counting (1 min) in a gamma counter.

CCKB receptor = molecular target: T2, CCKB receptor (Mus musculus, UniProt P56481); assay: CCKB receptor radioligand binding assay in mouse cortical membranes ([125I]-CCK8S); conditions: [125I]-CCK8S 200 pM, 150 min at 21±3°; for Ki: read-out: CCKB pKi (converted)
T2 construct: The cortex was dissected, weighed and homogenised in 40ml ice-cold buffer; tissue Charles River (supplier of the CD1 mice); host or cells: cerebral cortex membranes of male CD1 mice
T2 sequence (P56481 1-453): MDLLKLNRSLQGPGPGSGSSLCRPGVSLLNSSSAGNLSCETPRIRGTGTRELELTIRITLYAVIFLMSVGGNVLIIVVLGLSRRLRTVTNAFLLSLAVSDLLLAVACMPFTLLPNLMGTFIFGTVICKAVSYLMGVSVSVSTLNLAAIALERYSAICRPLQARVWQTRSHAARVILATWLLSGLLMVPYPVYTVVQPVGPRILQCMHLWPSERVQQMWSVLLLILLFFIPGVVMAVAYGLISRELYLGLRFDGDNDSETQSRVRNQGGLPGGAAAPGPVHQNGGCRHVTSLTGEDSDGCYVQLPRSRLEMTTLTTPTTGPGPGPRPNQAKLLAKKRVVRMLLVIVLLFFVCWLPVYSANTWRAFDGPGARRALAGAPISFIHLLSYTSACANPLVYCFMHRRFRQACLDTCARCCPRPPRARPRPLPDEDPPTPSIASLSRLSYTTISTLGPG
Method: The compounds of the examples were tested for binding at the CCKB receptor in mouse cortical membranes by means of a radioligand binding assay. The procedure was as follows:
The whole brains from male mice (CD1 22-25 g; Charles River) were removed and placed in ice-cold buffer (pH7.2 @ 21±3°) of the following composition (mM); 10 HEPES, 130 NaCl, 4.7 KCl, 5 MgCl2, 1 EDTA and containing 0.25g.^-1 bacitracin. The cortex was dissected, weighed and homogenised in 40ml ice-cold buffer using a Teflon-in-glass homogeniser. The homogenate was centrifuged at 39,800g for 20 min at 4°, the supernatant discarded and the pellet resuspended by homogenisation in fresh buffer. The homogenate was recentrifuged (39,800 g; 20 min @ 4°) and the final pellet was resuspended in HEPES buffer to give a tissue concentration of 2 mg.ml^-1 (original wet weight).
The membranes ([…]) were incubated for 150 min at 21±3° in a final volume of 0.5 ml with HEPES buffer containing [^125 I]-CCK8S (0.05 ml; 200 pM NEN 2200 Ci.mmol^-1) and competing compound. Total and non-specific binding of [^125 I]-CCK8S were defined using 0.05 ml of buffer and 0.05 ml of […] L-365,260, respectively. The assay was terminated by rapid filtration through pre-soaked Whatman GF/B filters using a Brandell Cell harvester. The filters were washed (3×3 ml) with ice-cold 50 mM Tris-HCl (pH7.4 @ 4° C.) and bound radioactivity determined by counting (1 min.) in a gamma-counter.

Row | Compound | Ki (CCKA) [nM] | Ki (CCKB receptor) [nM] | CCKA pKi (CCKA) | CCKB pKi (CCKB receptor)
1 | O=C(O)c1cc(NC(=O)[C@@H]2Cc3ccccc3CN2C(=O)c2cc3[nH]cnc3cc2C(=O)NCC23CC4CC(CC(C4)C2)C3)cc(C(=O)O)c1 [Example 129, 5-(3S-(3,5-dicarboxyphenylaminocarbonyl)-1,2,3,4-tetrahydroisoquinolino-2-carbonyl)-6-(1-adamantanemethylaminocarbonyl)-benzimidazole] | 7940 | 200 | – | –
2 | O=C(O)c1cc(NC(=O)[C@H](Cc2ccccc2)NC(=O)c2cc3ccn(S(=O)(=O)c4ccccc4)c3cc2C(=O)NCC23CC4CC(CC(C4)C2)C3)cc(C(=O)O)c1 [Example 45, 5-(1S-(3,5-dicarboxyphenylaminocarbonyl)-2-phenylethylaminocarbonyl)-6-(1-adamantanemethylamino-carbonyl)-N-phenylsulphonyl-indole] | – | – | 6.1 | 7.1
3 | 1/2-(1-adamantanemethylaminocarbonyl)-naphthoic acid Regioisomer 2 [Example 22] | – | – | 5.4 | 5.9
4 | O=C(NCC12CC3CC(CC(C3)C1)C2)c1cc2[nH]ccc2cc1C(=O)N[C@@H](Cc1ccccc1)C(=O)Nc1cc(NC(=O)C(F)(F)F)cc(NC(=O)C(F)(F)F)c1 [Example 94, 5-(1S-(3,5-di-trifluoromethylcarbonylaminophenylamino-carbonyl)-2-phenylethylaminocarbonyl)-6-(1-adamantanemethylaminocarbonyl)-indole] | – | – | 5.0 | 6.7
5 | Cc1nc2cc(C(=O)NCC34CC5CC(CC(C5)C3)C4)c(C(=O)N[C@@H](Cc3ccccc3)C(=O)Nc3cc(C(=O)O)cc(C(=O)O)c3)cc2[nH]1 [Example 111, 5-(1S-(3,5-dicarboxyphenylaminocarbonyl)-2-phenylethylaminocarbonyl)-6-(1-adamantanemethylaminocarbonyl)-2-methylbenzimidazole] | > 10000 | 1580 | – | –
6 | 5-(1S-(3,5-diethoxycarbonylphenylaminocarbonyl)-2-phenylethylaminocarbonyl)-6-(1-adamantanemethylaminocarbonyl)-indole and regioisomer with substituents at positions 5 and 6 reversed [Example 66] | – | – | 5.0 | 5.8
7 | O=C(NCC12CC3CC(CC(C3)C1)C2)c1cc2cc[nH]c2cc1C(=O)N[C@@H](Cc1ccccc1F)C(=O)Nc1cc(-c2nn[nH]n2)cc(-c2nn[nH]n2)c1 [Example 98, 6-(1S-(3,5-ditetrazolylphenylaminocarbonyl)-2-(2-fluorophenyl)ethylaminocarbonyl)-5-(1-adamantanemethylaminocarbonyl)-indole] | 200 | 3.98 | – | –

The next lines start with the values.

Row | Ki (CCKA) [nM] | Ki (CCKB receptor) [nM] | CCKA pKi (CCKA) | CCKB pKi (CCKB receptor) | Compound
8 | 501 | 0.794 | – | – | O=C(NCC12CC3CC(CC(C3)C1)C2)c1cc2[nH]ccc2cc1C(=O)N[C@@H](Cc1ccccc1F)C(=O)Nc1cc(-c2nn[nH]n2)cc(-c2nn[nH]n2)c1 [Example 97, 5-(1S-(3,5-ditetrazolylphenylaminocarbonyl)-2-(2-fluorophenyl)ethylaminocarbonyl)-6-(1-adamantanemethylaminocarbonyl)-indole]
9 | 631 | 2.51 | – | – | O=C(NCC12CC3CC(CC(C3)C1)C2)c1cc2nc[nH]c2cc1C(=O)N[C@@H](Cc1ccccc1F)C(=O)Nc1cc(-c2nn[nH]n2)cc(-c2nn[nH]n2)c1 [Example 84, 5-(1S-(3,5-ditetrazolylphenylaminocarbonyl)-2-(2-fluorophenyl)ethylaminocarbonyl)-6-(1-adamantanemethylaminocarbonyl)-benzimidazole]
10 | 1000 | 631 | – | – | O=Cc1cc(C=O)cc(NC(=O)[C@H](Cc2ccccc2)NC(=O)c2cc3[nH]cnc3cc2C(=O)NCC23CC4CC(CC(C4)C2)C3)c1 [Example 120, 5-(1S-(3,5-hydrogencarbonylphenylaminocarbonyl)-2-phenylethylaminocarbonyl)-6-(1-adamantanemethylaminocarbonyl)-benzimidazole]
